Where “and” joins values, the source holds several entries; their conditions need not be identical. Identical values can stand only once. No end group written: not given here.
Columns and labels:
[1] = system: anti-PBA polyclonal antibodies; experiment: Cross-reactivity of the noncompetitive phage ELISA for PBA; type: binding, rabbit; details: for CR (%): % cross-reactivity=100×[SC50(PBA)/SC50(cross-reacting compound)]; for IC50: noncompetitive phage ELISA for PBA
Method: The specificity of the noncompetitive assay set up with the phage borne peptide was characterized by determining its cross-reactivity with structurally related pesticides. PBA concentrations in the 0-50 ng/ml range were used in the noncompetitive ELISAs. Data were normalized, and the molar compound concentration corresponding to the midpoint of the curve, (which corresponds to the concentration of analyte producing 50% saturation of the signal (SC50), was used to express the cross-reactivity of the assay according to the equation:
% cross−reactivity=100×[SC50(PBA)/SC50(cross−reacting compound)]

[2] = system: atrazine-MoAb K4E7 immunocomplex; experiment: Noncompetitive phage assay (PHAIA) for atrazine; type: binding; details: atrazine as analyte; MoAb K4E7 immobilized; phage borne peptides as tracers
Method: In this case, we used the MoAb K4E7 specific for atrazine. The conventional chemical hapten assay developed with this MoAb (see, e.g., Giersch, J Ag. Food Chem. 41: 1006-1011 (1993)) allows one to reach an IC50 of 0.5 ng/ml. We used the atrazine-MoAb K4E7 immunocomplex to select phage borne peptides that could be used to develop a noncompetitive assay. The protocols used for panning and assay set up were identical to those used for the molinate-MoAb 14D7 system described in Example 1 above. […] A short consensus sequence was identified: WFD. The consensus sequence can occur at position two or five of the random sequence. […]
Fifty μl per well of serial dilutions of molinate standard in PBST were dispensed into microtiter plates coated with MoAb 14D7, followed by the addition of 50 μl/well of the adequate dilution of the stabilized phage suspension. […] Absorbance values were fitted to a four-parameter logistic equation using the Genesis Lite 3.03 (Life Sciences (UK) Ltd.) package software. The lower detection limit (DL) of the assays was estimated as the analyte concentration corresponding to the absorbance equal to that of the zero standard plus three times its standard deviation).

MoAb K4E7 [3] = details: atrazine, Giersch 1993; cited from earlier work
MoAb K4E7 [4] = details: atrazine; Cardozo et al. 2005; cited from earlier work
MoAb 14D7 [5] = details: molinate, Rufo et al. 2004; cited from earlier work
MoAb 14D7 [6] = details: molinate; Cardozo et al. 2005; cited from earlier work
[7] = system: molinate-MoAb 14D7 immunocomplex; experiment: Noncompetitive phage ELISA (PHAIA) for molinate; type: binding; details: molinate as analyte, plates coated with MoAb 14D7, named phage borne peptide as tracer
Excerpt: In a similar way that the IC50 (the analyte concentration producing 50% inhibition) is used to denote the sensitivity of competitive methods, we refer to the concentration of analyte producing 50% saturation (SC50) in noncompetitive assays as a practical parameter to compare the sensitivity of our assays. […] For each of these clones, the assay conditions were optimized as described previously. […] These differences highlight the importance of the residues that flank the WDT consensus sequence of the selected peptides. This can be seen in the case of the S1 and S4 peptide sequences, which only differ in two amino acids and yield assays with SC50 of 5 and 32 ng/ml, respectively.
(§1) Nunc-Immuno™ Maxi-Sorp™ plates were coated with MoAb 14D7 or molinate-MoAb 14D7 immunocomplex as described previously. The wells were blocked with 5% skimmed milk PBS, and washed three times with PBST. One hundred μl/well of an overnight culture of individual amplified phage clones were dispensed into the wells. The microtiter plates where then incubated for 1 h at room temperature with gentle rocking. After washing three times with PBST, 100 μL of a 1/5000 dilution of horse radish peroxidase (HRP) labeled anti-M13 monoclonal antibody (Pharmacia, Uppsala) in PBST were added to each well. One hour later, the plates were thoroughly washed and 100 μl of peroxidase substrate (25 ml of 0.1 M citrate acetate buffer pH 5.5, 0.4 ml of 6 mg/ml DMSO solution of 3,3′,5,5′-tetramethylbenzidine, and 0.1 ml of 1% H2O2) were dispensed into each well. The enzymatic reaction was stopped after 15-20 min by the addition of 50 μl of 2 M H2SO4, and the absorbance at 450 nm (corrected at 600 nm) was read in a microtiter plate reader (Multiskan MS, Labsystems). The supernatants showing high readings in wells coated with the immunocomplex and low response in antibody coated wells were prepared as stabilized phage suspensions (see below), and use for further analysis. For checkerboard titration, 100 μl of variable concentrations of the antibody (0.3-2 μg/ml) were used for coating.
Fifty μl per well of serial dilutions of molinate standard in PBST were dispensed into microtiter plates coated with MoAb 14D7, followed by the addition of 50 μl/well of the adequate dilution of the stabilized phage suspension. The antibody concentration used for coating and the proper dilution of the phage suspension had been previously optimized by checkerboard experiments. After an hour incubation period at room temperature, the plates were washed and developed as previously described. Absorbance values were fitted to a four-parameter logistic equation using the Genesis Lite 3.03 (Life Sciences (UK) Ltd.) package software. The lower detection limit (DL) of the assays was estimated as the analyte concentration corresponding to the absorbance equal to that of the zero standard plus three times its standard deviation).

MoAb 14D7 [8] = experiment: Phage ELISA checkerboard titration: reactivity with the IC and the uncombined antibody; type: binding; details: wide range of MoAb 14D7 coating densities, absence of molinate
Method: as §1

Molecule | CR (%) [1] | IC50 [1] | SC50 (concentration of analyte producing 50% saturation) [7] | further results
O=C(O)c1ccc(O)cc1 [4-Hydroxybenzoic acid] | 0% | >0.1 µg/mL |  | 
CC1(C)C(C=C(Cl)Cl)C1C(=O)OC(C#N)c1cccc(Oc2ccccc2)c1 (stereo not drawn) [Cypermethrin] | 0% | >0.1 µg/mL |  | 
CC(C)C(C(=O)OC(C#N)c1cccc(Oc2ccccc2)c1)c1ccc(Cl)cc1 (stereo not drawn) [Esfenvalerate] | 0% | >0.1 µg/mL |  | 
O=C(O)CNC(=O)c1cccc(Oc2ccccc2)c1 [PBA-glycine conjugate] | 0% | >0.1 µg/mL |  | 
CC1(C)C(C=C(Cl)Cl)C1C(=O)OCc1cccc(Oc2ccccc2)c1 (stereo not drawn) [Permethrin] | 0% | >0.1 µg/mL |  | 
CCNc1nc(Cl)nc(NC(C)C)n1 [atrazine] |  |  |  | SC50 [2]: 0.2 to 0.8 ng/mL; IC50 of conventional chemical hapten assay (MoAb K4E7 [3]): 0.0005 µg/mL; IC50 of competitive assay set up with the same antibody (MoAb K4E7 [4]): 0.00064 ± 6e-05 µg/mL
CCSC(=O)N1CCCCCC1 [molinate] |  |  |  | IC50 of competitive assay set up with heterologous chemical haptens (MoAb 14D7 [5]): 69 ng/ml and 69.2±1.4 ng/ml; IC50 of phage competitive assay (MoAb 14D7 [6]): 0.045 µg/mL
C N I W D T S G W C (CNIWDTSGWC; phage-displayed) [mH, phage clone from the mutagenesis library] |  |  | 27 ± 2.0 ng/mL | 
C N L W D T T G W C (CNLWDTTGWC; phage-displayed) [mF, phage clone from the mutagenesis library] |  |  | 11 ± 0.5 ng/mL | 
C N R W D T T G W C (CNRWDTTGWC; not fully specified (bridges); cysteine pairing not given here; also: phage-displayed on pVIII) [8M2] |  |  | 6.1 ± 0.3 ng/mL and 6.0 ± 0.3 ng/mL | 
C S I W D T T G W C (CSIWDTTGWC; phage-displayed) [mI12, phage clone from the mutagenesis library] |  |  | 8.1 ± 0.6 ng/mL | 
C S L W D T T G W C (CSLWDTTGWC; phage-displayed) [mA, phage clone from the mutagenesis library] |  |  | 8.5 ± 0.5 ng/mL | residual reactivity with the free (uncombined) antibody (MoAb 14D7 [8]): little reactivity with the free antibody
C S T W D T T G W C (CSTWDTTGWC; also: phage-displayed on pVIII, cyclic, bridge not given here) [1M] |  |  | 5.0 ± 0.4 ng/mL | SC50 (concentration of analyte producing 50% saturation) ([7]; listed as S1): 5 ng/mL
C S V W D T S G W C (CSVWDTSGWC; not fully specified (bridges); cysteine pairing not given here; also: phage-displayed) [10M2] |  |  | 32 ± 5 ng/mL and 32 ± 4.9 ng/mL | SC50 (concentration of analyte producing 50% saturation) ([7]; listed as S4): 32 ng/mL
C S Y W D T T G W C (CSYWDTTGWC; phage-displayed) [mG, phage clone from the mutagenesis library] |  |  | 16 ± 0.7 ng/mL | 
CTPVRWFDMC (phage-displayed) [13A] |  |  |  | SC50 [2]: 0.0511 ± 0.002 ng/mL
